For 42 compounds, IC50 results are on record in patent publication US20160304556A1, “[…] ACTIVE COMPOUNDS AND THEIR METHODS OF USE” (AGIOS PHARMACEUTICALS, INC, priority 2012, published 2016).

One assay has as its target IDH1 R132H (Homo sapiens, UniProt O75874, R132H). The assay is described as follows: In vitro NADPH depletion assay for IDH1m R132H inhibitors. The class given is biochemical. The settings on record: enzyme, diaphorase/resazurin readout, read-out: IDH R132H IC50. Here is the method: A test compound is prepared as 10 mM stock in DMSO and diluted to 50× final concentration in DMSO, for a 50 μl reaction mixture. IDH enzyme activity converting alpha-ketoglutarate to 2-hydroxyglutaric acid is measured using a NADPH depletion assay. In the assay the remaining cofactor is measured at the end of the reaction with the addition of a catalytic excess of diaphorase and resazurin, to generate a fluorescent signal in proportion to the amount of NADPH remaining. IDH1-R132 homodimer enzyme is diluted to […] in 40 μl of Assay Buffer(150 mM NaCl, 20 mM Tris-Cl pH 7.5, 10 mM MgCl2, 0.05% BSA, 2 mM b-mercaptoethanol); 1 μl of test compound dilution in DMSO is added and the mixture is incubated for 60 minutes at room temperature. The reaction is started with the addition of 10 μl of Substrate Mix ([…], 5 mM alpha-ketoglutarate, in Assay Buffer) and the mixture is incubated for 90 minutes at room temperature. The reaction is terminated with the addition of 25 μl of Detection Buffer (36 μg/ml diaphorase, […], in 1× Assay Buffer), and is incubated for 1 minute before reading on a SpectraMax platereader at Ex544/Em590.
Representative compounds of formula I set forth in Table 1 were tested in this assay and the results are set forth below in Table 3.

Another assay has as its system HT1080 cells. Briefly: Cellular assay, inhibition of 2-HG production (LC-MS) in HT1080 cells. The class given is cell-based. As to conditions: Homo sapiens, HT-1080, 48 hours, LC-MS of media. Here is the method:
Cells (HT1080 or U87MG) are grown in T125 flasks in DMEM containing 10% FBS, 1× penicillin/streptomycin and 500 ug/mL G418 (present in U87MG cells only). They are harvested by trypsin and seeded into 96 well white bottom plates at a density of 5000 cell/well in 100 μl/well in DMEM with 10% FBS. No cells are placed in columns 1 and 12. Cells are incubated overnight at 37° C. in 5% CO2. The next day test compounds are made up at 2× the final concentration and 100 μl are added to each cell well. The final concentration of DMSO is 0.2% and the DMSO control wells are plated in row G. The plates are then placed in the incubator for 48 hours. At 48 hours, 100 μl of media is removed from each well and analyzed by LC-MS for 2-HG concentrations. The cell plate is placed back in the incubator for another 24 hours. At 72 hours post compound addition, 10 mL/plate of Promega Cell Titer Glo reagent is thawed and mixed. The cell plate is removed from the incubator and allowed to equilibrate to room temperature. Then 100 μl of Promega Cell Titer Glo reagent is added to each well of media. The cell plate is then placed on an orbital shaker for 10 minutes and then allowed to sit at room temperature for 20 minutes. The plate is then read for luminescence with an integration time of 500 ms.
The IC50 for inhibition of 2-HG production (concentration of test compound to reduce 2HG production by 50% compared to control) in these two cell lines for various compounds of formula I is set forth in Table 2 above.

pIC50: −log10 of the molar value. A value given as a limit tells only on which side of the number the result lay.

Broadly, the pIC50 is the negative decadic logarithm of the IC50, by convention in mol/L.

Sequence of IDH1 R132H (O75874 whole entry R132H): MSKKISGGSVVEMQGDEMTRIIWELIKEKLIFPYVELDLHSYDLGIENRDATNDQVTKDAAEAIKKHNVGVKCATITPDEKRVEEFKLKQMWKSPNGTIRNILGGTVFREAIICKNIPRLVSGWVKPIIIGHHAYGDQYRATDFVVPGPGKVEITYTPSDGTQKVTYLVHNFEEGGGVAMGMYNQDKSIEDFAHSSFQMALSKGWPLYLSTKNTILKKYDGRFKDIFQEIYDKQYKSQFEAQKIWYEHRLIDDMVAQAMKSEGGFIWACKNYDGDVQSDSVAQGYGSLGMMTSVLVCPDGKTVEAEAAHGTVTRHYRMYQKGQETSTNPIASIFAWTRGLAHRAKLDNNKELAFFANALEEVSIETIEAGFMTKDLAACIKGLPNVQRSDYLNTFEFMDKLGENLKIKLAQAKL

With `O=C(NC1CC(F)(F)C1)[C@@H](c1ccccc1Cl)N(C(=O)[C@@H]1Cc2ccccc2N1)c1cc(F)cc(F)c1` (single isomer, unassigned) [Compound 117], at IDH1 R132H, the pIC50 was 6.30 to 7.00. As to `O=C(NC1CC(F)(F)C1)[C@H](c1ccccc1Cl)N(C(=O)[C@@H]1Cc2ccccc2N1)c1cc(F)cc(F)c1` (single isomer, unassigned) [Compound 118], the pIC50 at IDH1 R132H and in the assay on HT1080 cells was 6.30 to 7.00 throughout. Regarding `O=C(NC1CC(F)(F)C1)C(c1ccccc1Cl)N(C(=O)[C@@H]1CCCc2nccn21)c1cccc(F)c1` (stereo in doubt) [Compound 41], the figures for the negative-log IC50 (pIC50) on IDH1 R132H and with HT1080 cells were at least 7.00 and 6.30 to 7.00, respectively. `Cc1ccccc1[C@@H](C(=O)NC1CCCCC1)N(C(=O)[C@@H]1CCCN1S(C)(=O)=O)c1cccc(F)c1` [Compound 1]: the pIC50 on IDH1 R132H is 6.00 to 6.30.

With `Cc1ccccc1[C@@H](C(=O)NC1CCCCC1)N(C(=O)[C@H]1CCCN1S(C)(=O)=O)c1cccc(F)c1` [Compound 2], the results for the negative-log IC50 (pIC50) at IDH1 R132H and with HT1080 cells were 6.30 to 7.00 and 5.70 to 6.00, respectively.

As for `CNC(=O)N1CCCC[C@@H]1C(=O)N(c1cccc(F)c1)[C@H](C(=O)NC1CCCCC1)c1ccccc1C` [Compound 3], on IDH1 R132H, the pIC50 was 6.00 to 6.30.

In the case of `Cc1ccccc1[C@@H](C(=O)NC1CCCCC1)N(C(=O)[C@H]1CCCCN1C(=O)N(C)C)c1cccc(F)c1` [Compound 4], the negative-log IC50 (pIC50) on IDH1 R132H is 6.00 to 6.30.

Take `COC(=O)N(C)[C@@H](C)C(=O)N(c1cccc(F)c1)[C@H](C(=O)NC1CCCCC1)c1ccccc1C` [Compound 5]: the negative-log IC50 (pIC50) is at least 7.00 on IDH1 R132H and 6.00 to 6.30 in the assay on HT1080 cells. On to `CCS(=O)(=O)NCC(=O)N(c1cccc(F)c1)C(C(=O)NC1CCCCC1)c1ccccc1C` (stereo not shown) [Compound 6], for which the pIC50 at IDH1 R132H was 6.30 to 7.00; in the assay on HT1080 cells, 5.70 to 6.00. `Cc1ccccc1C(C(=O)NC1CCCCC1)N(C(=O)CNC(=O)OC(C)(C)C)c1cccc(F)c1` (stereo not shown) [Compound 7]: at IDH1 R132H, the pIC50 was 6.00 to 6.30. Take `Cc1ccccc1C(C(=O)NC1CCCCC1)N(C(=O)CCNC(=O)OC(C)(C)C)c1cccc(F)c1` (stereo not shown) [Compound 8]: on IDH1 R132H, the negative logarithm of the IC50 (pIC50) is 6.00 to 6.30. As for `CC(=O)N1CCC[C@H]1C(=O)N(c1cccc(F)c1)[C@H](C(=O)NC1CCCCC1)c1ccccc1C` [Compound 9], the pIC50 at IDH1 R132H is 6.30 to 7.00; in the assay with HT1080 cells, 5.70 to 6.00. Take `CC(=O)N1CCC[C@@H]1C(=O)N(c1cccc(F)c1)[C@H](C(=O)NC1CCCCC1)c1ccccc1C` [Compound 10]: on IDH1 R132H, the pIC50 was 6.30 to 7.00.

In the case of `Cc1ccccc1C(C(=O)NC1CCC(F)(F)CC1)N(C(=O)Cn1ccnc1C(F)(F)F)c1cccc(F)c1` (stereo not shown) [Compound 11], the pIC50 was 6.30 to 7.00 at IDH1 R132H and 6.00 to 6.30 in the assay on HT1080 cells.

For `COC(=O)NCCC(=O)N(c1cccc(F)c1)C(C(=O)NC1CCCCC1)c1ccccc1C` (stereo not shown) [Compound 12], on IDH1 R132H, the pIC50 was 6.30 to 7.00.

Take `CNC(=O)N1CCC[C@@H]1C(=O)N(c1cccc(F)c1)[C@H](C(=O)NC1CCCCC1)c1ccccc1C` [Compound 13]: on IDH1 R132H, the negative logarithm of the IC50 (pIC50) is 6.00 to 6.30.

For `Cc1ccccc1[C@@H](C(=O)NC1CCCCC1)N(C(=O)[C@H]1CCCN1)c1cccc(F)c1` [Compound 14], the pIC50 on IDH1 R132H was 6.00 to 6.30. The same measure, in the same setting: the same measure for `Cc1ccccc1C(C(=O)NC1CC2CC2C1)N(C(=O)CNc1cccnc1F)c1cccc(F)c1` (stereo not shown) [Compound 15]: 6.30 to 7.00. In turn, `Cc1ccccc1C(C(=O)NC1CCC(F)(F)CC1)N(C(=O)CNc1cccnc1F)c1cccc(F)c1` (stereo not shown) [Compound 16] had a negative-log IC50 (pIC50) in the assay on HT1080 cells of 6.30 to 7.00. As for `Cc1ccccc1C(C(=O)NC1CC(F)(F)C1)N(C(=O)CNc1ncccc1F)c1cccc(F)c1` (stereo not shown) [Compound 17], the pIC50 on IDH1 R132H and with HT1080 cells was 6.30 to 7.00 throughout. In the case of `Cc1ccccc1C(C(=O)NC1CC(F)(F)C1)N(C(=O)Cn1ccnc1C)c1cccc(F)c1` (stereo not shown) [Compound 18], the pIC50 on IDH1 R132H was 6.00 to 6.30; in the assay with HT1080 cells, 5.70 to 6.00. In the assay with HT1080 cells, `Cc1ccccc1C(C(=O)NC1CC(F)(F)C1)N(C(=O)CNc1cccnc1F)c1cccc(F)c1` (stereo not shown) [Compound 19] gave a negative logarithm of the IC50 (pIC50) of 6.30 to 7.00. As for `O=C(NC1CCCCC1)C(c1ccccc1Cl)N(C(=O)c1cc2ccccc2[nH]1)c1cccc(F)c1` (stereo not shown) [Compound 20], the negative logarithm of the IC50 (pIC50) on IDH1 R132H is 6.00 to 6.30. In the assay with HT1080 cells, `O=C(NC1CCCCC1)C(c1ccccc1Cl)N(C(=O)Cn1cnc(Cl)c1Cl)c1cccc(F)c1` (stereo not shown) [Compound 21] showed a pIC50 of 6.30 to 7.00. In the case of `N#Cc1ncn(CC(=O)N(c2cccc(F)c2)C(C(=O)NC2CCCCC2)c2ccccc2Cl)c1C#N` (stereo not shown) [Compound 22], the pIC50 on IDH1 R132H was 6.30 to 7.00; with HT1080 cells it was 6.00 to 6.30.

`O=C(NC1CCCCC1)C(c1ccccc1Cl)N(C(=O)Cn1cncn1)c1cccc(F)c1` (stereo not shown) [Compound 24]: the pIC50 was at least 7.00 at IDH1 R132H and 6.30 to 7.00 with HT1080 cells. In the same order, the values of `Cc1nccn1CC(=O)N(c1cccc(-c2nnco2)c1)C(C(=O)NC1CCCCC1)c1ccccc1Cl` (stereo not shown) [Compound 25, N-(3-(1,3,4-oxadiazol-2-yl)phenyl)-N-(1-(2-chlorophenyl)-2-(cyclohexylamino)-2-oxoethyl)-2-(2-methyl-1H-imidazol-1-yl)acetamide] are 6.30 to 7.00 and 5.70 to 6.00. For `Cc1nccn1CC(=O)N(c1cccc2[nH]ncc12)C(C(=O)NC1CCCCC1)c1ccccc1Cl` (stereo not shown) [Compound 26], in that order: 6.30 to 7.00 and 5.70 to 6.00. For `N#Cc1cccc(N(C(=O)Cn2cnc(Cl)c2Cl)C(C(=O)NC2CCCCC2)c2ccccc2Cl)c1` (stereo not shown) [Compound 27], in that order: 6.30 to 7.00 and 6.00 to 6.30.

Take `N#Cc1ccccc1C(C(=O)NC1CCCCC1)N(C(=O)Cn1cnc(Cl)c1Cl)c1cccc(F)c1` (stereo not shown) [Compound 28]: the pIC50 on IDH1 R132H is 6.30 to 7.00. On to `O=C(NC1CCCCC1)C(c1ccc(F)cc1F)N(C(=O)Cn1cnc(Cl)c1Cl)c1ccc(F)c(F)c1` (stereo not shown) [Compound 30, N-cyclohexyl-2-(2-(4,5-dichloro-1H-imidazol-1-yl)-N-(3,4-difluorophenyl)acetamido)-2-(2,4-difluorophenyl)acetamide], for which the negative logarithm of the IC50 (pIC50) at IDH1 R132H was 6.30 to 7.00; in the assay on HT1080 cells, 6.00 to 6.30. Consider `O=C(NC1CCCCC1)C(c1ccccc1Cl)N(C(=O)C1CCc2ccccc2N1)c1cccc(F)c1` (stereo not shown) [Compound 31, N-(1-(2-chlorophenyl)-2-(cyclohexylamino)-2-oxoethyl)-N-(3-fluorophenyl)-1,2,3,4-tetrahydroquinoline-2-carboxamide], for which the pIC50 on IDH1 R132H was at least 7.00; in the assay with HT1080 cells, 6.30 to 7.00. In the case of `O=C(NC1CCC(F)(F)CC1)C(c1ccccc1Cl)N(C(=O)c1cc2ccccc2[nH]1)c1cccc(F)c1` (stereo not shown) [Compound 34], the negative-log IC50 (pIC50) on IDH1 R132H is 6.00 to 6.30. Still for that read-out and setting: the same measure for `O=C(NC1CCC(F)(F)CC1)C(c1ccccc1Cl)N(C(=O)Cn1cncn1)c1ccc(F)c(F)c1` (stereo not shown) [Compound 37]: 6.30 to 7.00; for `O=C(NC1CCC(F)(F)CC1)C(c1ccccc1Cl)N(C(=O)Cn1cnc(Cl)c1Cl)c1ccc(F)c(F)c1` (stereo not shown) [Compound 38]: 6.30 to 7.00; for `CC(C)(C)OC(=O)N1CCC[C@H]1C(=O)N(c1cccc(F)c1)[C@H](C(=O)NC1CC(F)(F)C1)c1ccccc1Cl` [Compound 39]: 6.00 to 6.30. On the same count and under the same terms, the same measure for `O=C(NC1CC(F)(F)C1)C(c1ccccc1Cl)N(C(=O)c1cccc2nccn12)c1cccc(F)c1` (stereo not shown) [Compound 40]: 6.00 to 6.30; for `CC(C)(C)OC(=O)N1CCC[C@H]1C(=O)N(c1cccc(F)c1)[C@H](C(=O)NC1CCC(F)(F)CC1)c1ccccc1Cl` [Compound 44]: 6.00 to 6.30; for `CNS(=O)(=O)c1cccc(N(C(=O)[C@@H]2CCCN2C(=O)OC)[C@H](C(=O)NC2CC(F)(F)C2)c2ccccc2Cl)c1` [Compound 58]: 6.30 to 7.00. On the same count and under the same terms, under `Cc1nccn1CC(=O)N(c1cccc(F)c1)C(C(=O)NC1CC(F)(F)C1)c1ccccc1Cl` (stereo not shown) [Compound 59] stands 6.30 to 7.00. `O=C(NC1CC(F)(F)C1)C(c1ccccc1Cl)N(C(=O)CN1CCOC1=O)c1cccc(F)c1` (stereo not shown) [Compound 60, 2-(2-chlorophenyl)-N-(3,3-difluorocyclobutyl)-2-(N-(3-fluoro-phenyl)-2-(2-oxooxazolidin-3-yl)acetamido)acetamide]: the pIC50 on IDH1 R132H was 6.00 to 6.30. For `O=C(NC1CC(F)(F)C1)[C@H](c1ccccc1Cl)N(C(=O)C1CCN1c1ncccn1)c1cccc(F)c1` (stereo partly shown) [Compound 103], the pIC50 in the assay on HT1080 cells is 5.70 to 6.00.
